In one data set the test system is P. falciparum TM91C235. Briefly: In vitro antimalarial activity against P. falciparum TM91C235. The format is cell-based, Plasmodium falciparum. The settings on record: for TM91C235 IC90: Table 2. As to the method:
The in vitro activities of AAQMs against P. falciparum strains W2, D6, TM91C235 and TM90C2A were evaluated using the method of Desjardins et al. as modified by Milhous et al. W2 is chloroquine resistant and mefloquine sensitive, D6 is chloroquine sensitive but naturally less susceptible to mefloquine, TM91C235 is resistant to mefloquine, chloroquine and pyrimethamine as is TM90C2A, however this latter parasite is a two pfmdr1 copy strain. We routinely run mefloquine in this screen as a control to ensure assay validity.

The subject of data set [1] is primary rat forebrain neurons. As to the kind of experiment: Neurocytotoxicity assay (MTT). The conditions noted are these: for IC50: read-out: Neurotoxicity ranking (IC50 in μM), approximate IC50 from screen at 10, 100 and 1000 μM, MTT. The protocol:
The neurocytotoxicity assay of AAQMs was conducted as per Dow et al.; The antimalarial potential of 4-quinolinecarbinolamines may be limited due to neurotoxicity and cross-resistance in mefloquine-resistant Plasmodium falciparum strains; Chemother. (48) 2624-2632 (2004) and is incorporated herein, by reference. This assay utilizes primary rat forebrain neurons and is a multi-endpoint screen. […] The AAQMs outlined in Table 1 were screened at 10, 100 and 1000 μM in triplicate, and the reduction in viability observed was determined using the 3-(4,5-dimethylthiazol-2-yl)-2,5-diphenyltetrazolium bromide (MTT) assay as per Dow et al., discussed above. Approximate IC50 values were calculated on the basis of the level of inhibition observed at each concentration. Full dose response assays were run for mefloquine and WR069878 with two fold dilutions (n=6 wells per dilution) and 11 dilutions for each drug. IC50s were calculated using Prism. Each time the assay is conducted, 20 μM mefloquine is included, as a control. […] Assays are re-run if the loss of viability induced by mefloquine is <40% or >60%. Neuroprotection experiments with 6,7-dinitroquinoxaline-2,3-dione (DNQX) and magnesium were performed as per Dow et al.; Transcriptional profiling of mefloquine-induced disruption of calcium homeostasis in neurons in vitro; Genomics (86)539-550 (2005), which is incorporated by reference, herein. Neurons were exposed to DNQX (100 μM) or magnesium (12 mM) for 5 min, followed by mefloquine (25 μM) or WR069878 (250 μM) for 20 min after which reduction in cell viability was determined. […] DNQX is an inhibitor of non-N-methyl-D-aspartate (NMDA) receptors, whilst magnesium inhibits the functioning of the inositol 1,4,5-trisphosphate (IP3)-mediated calcium signaling pathway at several points. The effects of mefloquine and WR069878 on neuronal calcium homeostasis were assessed utilizing confocal microscopy as per Dow et al, as discussed in Antimicrob Agents Chemother. (48)2624-2632 (2004), cited above, and incorporated by reference, herein. Briefly neurons were loaded with calcium sensitive dye Fluo 3-A for 1 h and were washed prior to image experiments. Neurons were ‘spiked’ with 100 μM mefloquine or WR069878. Subsequent changes in neuronal calcium homeostasis were recorded as fluctuations in the emitted fluorescence of fluo-3-complexed calcium at 530 nm (excitation was 488 nm). Sequential image scans of fields containing 5-25 neurons were used to construct temporal profiles. Scans were made at 10 s intervals. Fluorescence levels for each neuron were normalized 12 to time zero values. Data were then pooled from three and five independent experiments for mefloquine and WR069878 respectively.

The procedure of data set [2]:
The AAQMs indicated in Table 1 (10 μM) were added to a mixture containing an NADPH-regenerating buffer (1.25 mM β-NADP+, 3.3 mM glucose-6-phosphate, and 3.3 mM MgCl2) and 0.5 mg/ml pooled human liver microsomes to a final volume of 125 μl. The mixtures were incubated for 5 minutes at 37° C. and the reactions were initiated by adding 25 μl glucose-6-phosphate dehydrogenase to a final concentration of 1 unit/ml. The reactions were maintained at 37° C. until they were terminated by the addition of an equal volume of 100% ice cold acetonitrile at 0, 10, 30, 60, and 120 minutes. Samples were centrifuged to pellet the proteins and the supernatant was analyzed by LC-MS/MS in duplicate using fast LC gradient or isocratic methods. AAQM concentrations were quantified with external calibration, using plots of response v. amount. Chromatograms were analyzed using the mass spectrometry software Xcalibur® QuanBrowser (for ThermoFinnigan® instruments) or MassLynx® (for Waters® instruments). Concentrations of AAQMs remaining at each time point were calculated using the unknown peak areas and corresponding calibration curves. In order to calculate the half-life, a first-order rate of decay was assumed. […] All reagents were purchased from Sigma except for the microsomes, which were obtained from BD Gentest®. For metabolite identification, samples were prepared as described above with human liver microsomes. Additional samples were prepared with for each AAQM using mouse, rat, and rhesus monkey liver microsomes. Samples were separated using an LC gradient method and analyzed by full scan LC-MS and LC-MS/MS. […] These MS/MS data were also used to do preliminary structural elucidation. […] The relative percentage of formation of each metabolite was determined in a semi-quantitative manner since standards of each metabolite were not available. Peak areas of each detected AAQM metabolite and the internal standard were determined, and their ratios were calculated as metabolite area/internal standard area. The percent formation of each metabolite was determined as the area ratio divided by the sum of all the metabolite area ratios.

The test system of data set [3] is FVO strain of P. falciparum. Briefly: Efficacy in P. falciparum-challenged Aotus monkeys. The format is in vivo, Plasmodium falciparum in Aotus lemurinus lemurinus. The conditions noted are these: 10 mg/kg/day x7 oral; groups of two; Cure = parasite free 90 days; R = average day of recrudescence; Failure = rescued with mefloquine. The protocol:
(§1) The P. berghei-mouse efficacy data were obtained from the WRAIR chemical information system (subcutaneous testing) or from recent tests conducted at AFRIMS, Thailand or at the University of Miami using a modified version of the Thompson test. Groups of five mice were inoculated through i.p. injection on day 0 (usually with 1×106 P. berghei-parasitized erythrocytes). The drugs in Table 1 were administered either subcutaneously or orally for three days (usually on days 3-5) at doses of 1.25-160 mg/kg in two to four fold increments. Cure was defined as survival until day 60 (subcutaneous dosing) or day 31 post-treatment (oral dosing). […] The minimum effective dose was the lowest dose level that cured at least one of five mice. The Aotus studies were performed according to Obaldia; Detection of Klebsiella pnuumoniae antibodies in Aotus l. lemurinus (Panamanian owl monkey) using an enzyme linked immunosorbent assay (ELIA) test; Lab Anim (25)133-141 (1991) and Obaldia et al., WR 238605, chloroquine, and their combinations as blood schizonticides against a chloroquine-resistant strain of Plasmodium vivax in Aotus monkeys; Am. J. Trop. Med. Hyg. (56)508-510 (1997), which are incorporated by reference, herein. Groups of two Aotus lemurinus 6 lemurinus of the karyotype VIII or IX (27) male and female monkeys with weights ranging from 742-970 g were inoculated with 5×10^6 parasites of either the FVO strain of P. falciparum or the AMRU1 strain of P. vivax. Both of these strains are chloroquine resistant. […] Monkeys were examined and thick Giemsa-stained blood smears were prepared and enumerated daily (17) to monitor the course of infection. […] In some instances, a high dose of the test drug was used to retreat monkeys instead of the mefloquine rescue. Monkeys are considered cured if they are parasite free 90 days post treatment. […] Plasma samples were taken from the monkeys in some studies for quantification of metabolites. Additional blood samples were taken as appropriate for complete blood counts and serum chemistry. Research was conducted in compliance with the Animal Welfare Act and other federal statutes and regulations relating to animals and experiments involving animals and adheres to principles stated in the Guide for the Care and Use of Laboratory Animals, NRC Publication, 1996 edition (34).

For data set [4] the following is noted: Aotus, 10 mg/kg/day oral x7; for Plasma conc on day 1 (ng/ml) 2 h: day 1, 2 h; for Plasma conc on day 1 (ng/ml) 24 h: day 1, 24 h; for Plasma conc. on day 7 (ng/ml) 2 h: day 7, 2 h; for Plasma conc. on day 7 (ng/ml) 24 h: day 7, 24 h. As to the method:
as §1

Each structure is given as a SMILES string. Entries after “also recorded” stand apart in the source; their conditions may differ. Some results are limits rather than exact numbers.

The IC50 is the concentration that inhibits the measured activity by half.

With `CCCCN(CCCC)CC(O)c1cc(-c2ccc(Cl)cc2)nc2cc(F)ccc12` (stereo not shown) [WR081049], the “Activity against P. falciparum TM91C235 (IC50 in ng/ml)” value with P. falciparum TM91C235 was 1.6 ng/mL. Besides, the concentration for half-maximal inhibition (IC50) in data set [1] is 200 µM.
`CCCCN(CCCC)CC(O)c1cc(-c2ccc(I)cc2)nc2c(Cl)cc(Cl)cc12` (stereo not shown) [WR106752]: the “Activity against P. falciparum TM91C235 (IC50 in ng/ml)” value with P. falciparum TM91C235 was found to be 8.0 ng/mL.
For the compound `CCCCNCC(O)c1cc(-c2ccc(Cl)cc2)nc2c(C)cc(C)cc12` (stereo not shown) [WR176399], in the data set with P. falciparum TM91C235, the “Activity against P. falciparum TM91C235 (IC50 in ng/ml)” value was found to be 0.48 ng/mL and the “TM91C235 IC90” value is less than 0.5 ng/mL. In data set [1], the IC50 amounted to 600 µM. Besides, in data set [2], the “Route of metabolic transformation” value is reported as “hydroxylation”. Besides, the “Outcome in Aotus” value in data set [3] is “cleared parasitemias, but recrudescence was subsequently observed; also recorded: Clear (R21)”. For the same compound, in data set [4], the “Mean peak concentration” value is 28 ng/mL, the “Plasma conc on day 1 (ng/ml) 2 h” value is 27 ng/mL, the “Plasma conc on day 1 (ng/ml) 24 h” value turned out to be 2.7 ng/mL and the “Plasma conc. on day 7 (ng/ml) 2 h” value worked out at 30 ng/mL. Besides, the “Plasma conc. on day 7 (ng/ml) 24 h” value in data set [4] is 3.8 ng/mL.
Turning to `CCCCN(CCCC)CC(O)c1cc(-c2ccc(Cl)cc2)nc2c(Cl)cc(Cl)cc12` (stereo not shown) [WR029252], in the data set with P. falciparum TM91C235, the “Activity against P. falciparum TM91C235 (IC50 in ng/ml)” value was found to be 7.6 ng/mL and the “TM91C235 IC90” value is 20 ng/mL. In addition, the half-maximal inhibitory concentration (IC50) in data set [1] amounted to 600 µM. In addition, the “Outcome in Aotus” value in data set [3] is “Failure”. In data set [4], the “Mean peak concentration” value was determined as 44 ng/mL, the “Plasma conc on day 1 (ng/ml) 2 h” value was determined as 67 ng/mL, the “Plasma conc on day 1 (ng/ml) 24 h” value is 1.0 ng/mL and the “Plasma conc. on day 7 (ng/ml) 2 h” value is 21 ng/mL. For the same compound, the “Plasma conc. on day 7 (ng/ml) 24 h” value in data set [4] was 1.0 ng/mL.
With `CCCCN(CCCC)CC(O)c1cc(-c2ccc(Cl)cc2)nc2ccc(Cl)cc12` (stereo not shown) [WR035058], in the data set with P. falciparum TM91C235, the “Activity against P. falciparum TM91C235 (IC50 in ng/ml)” value was found to be 2.7 ng/mL and the “TM91C235 IC90” value worked out at 8.5 ng/mL. In data set [1], the IC50 turned out to be 600 µM. For the same compound, the “Outcome in Aotus” value in data set [3] was “Cures and Cure”. In data set [4], the “Mean peak concentration” value was 413 ng/mL, the “Plasma conc on day 1 (ng/ml) 2 h” value worked out at 454 ng/mL, the “Plasma conc on day 1 (ng/ml) 24 h” value was found to be 84 ng/mL and the “Plasma conc. on day 7 (ng/ml) 2 h” value worked out at 371 ng/mL. For the same compound, the “Plasma conc. on day 7 (ng/ml) 24 h” value in data set [4] came to 105 ng/mL.
`CCCC[N+]([O-])(CCCC)CC(O)c1cc(-c2ccc(Cl)cc2)nc2c(Cl)cc(Cl)cc12` (stereo not shown) [WR098656]: the “Activity against P. falciparum TM91C235 (IC50 in ng/ml)” value in the data set on P. falciparum TM91C235 amounted to 3.3 ng/mL. Further, the half-maximal inhibitory concentration (IC50) in data set [1] amounted to 60 µM.
As to `CCN(CC)CC(O)c1cc(-c2ccc(Cl)cc2)nc2c(Cl)cc(Cl)cc12` (stereo not shown) [WR041294], the “Activity against P. falciparum TM91C235 (IC50 in ng/ml)” value in the data set with P. falciparum TM91C235 was determined as 1.1 ng/mL. Moreover, in data set [1], the IC50 was found to be 60 µM. For the same compound, in data set [2], the “Route of metabolic transformation” value was “N-dealkylation”.
For the compound `O=C(O)c1cc(C(F)(F)F)nc2c(C(F)(F)F)cccc12` [Mefloquine metabolite, reference compound], the Killing of neurons entry in data set [1] (at 1000 microM, FIG. 1) is recorded as “only partial killing”.
As for `CCCCNCC(O)c1cc(-c2ccc(Cl)cc2)nc2c(Cl)cc(Cl)cc12` (stereo not shown) [WR007524], the “Activity against P. falciparum TM91C235 (IC50 in ng/ml)” value with P. falciparum TM91C235 came out at 0.63 ng/mL. Moreover, the half-maximal inhibitory concentration (IC50) in data set [1] was found to be 60 µM. Moreover, the “Route of metabolic transformation” value in data set [2] is on record as “not at all”.
On to `CCCCN(CCCC)CC(O)c1cc(-c2ccc(Cl)cc2)nc2c(C)cccc12` (stereo not shown) [WR211925], for which the “Activity against P. falciparum TM91C235 (IC50 in ng/ml)” value in the data set with P. falciparum TM91C235 came to 5.2 ng/mL. The IC50 in data set [1] was 600 µM.
For the compound `CCCCCCN(CCCCCC)CC(O)c1cc(-c2ccccc2)nc2c(Cl)cccc12` (stereo not shown) [WR211679], in the data set with P. falciparum TM91C235, the “Activity against P. falciparum TM91C235 (IC50 in ng/ml)” value stood at 7.7 ng/mL.

The record behind these values is patent publication US20110092488A1, “Quninoline Methanol Compounds for the Treatment and Prevention of Parasitic Infections” (priority 2005, published 2011).
